Here are results for 1 molecule from US8163909B2, “Substituted hydroxyethyl amine compounds as beta-secretase modulators and methods of use” (Amgen Inc., priority 2007, dated 2012).

The conditions of series [1]: rat, microsomes, 1 μM, pH 7.4.
The next series deals with CYP3A (Homo sapiens, UniProt P08684). As to conditions: CYP3A4 inhibition.
The conditions of series [2]: human, microsomes, 1 μM, pH 7.4.

Sequence of CYP3A (P08684 2-503): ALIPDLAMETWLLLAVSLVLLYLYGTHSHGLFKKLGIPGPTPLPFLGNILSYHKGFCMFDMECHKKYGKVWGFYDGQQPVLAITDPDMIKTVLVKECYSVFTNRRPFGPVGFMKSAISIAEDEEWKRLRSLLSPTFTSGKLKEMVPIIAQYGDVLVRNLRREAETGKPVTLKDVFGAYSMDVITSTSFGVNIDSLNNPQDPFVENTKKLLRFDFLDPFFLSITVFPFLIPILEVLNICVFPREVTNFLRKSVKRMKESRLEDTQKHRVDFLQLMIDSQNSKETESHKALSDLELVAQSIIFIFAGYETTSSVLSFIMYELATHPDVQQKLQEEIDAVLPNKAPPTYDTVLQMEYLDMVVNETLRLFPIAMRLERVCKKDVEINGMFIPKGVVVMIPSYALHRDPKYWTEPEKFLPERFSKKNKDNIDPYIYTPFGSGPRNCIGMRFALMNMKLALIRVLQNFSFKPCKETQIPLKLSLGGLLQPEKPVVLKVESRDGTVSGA

For `COCC(=O)N[C@@H](Cc1cc(F)cc(F)c1)[C@H](O)CN[C@H]1CC2(CCC2)Oc2c1cc([C@H]1CC1(C)C)nc2-c1ccncc1` [compound 703], in series [1], the “RLM” value was found to be 118 µL/min/mg. Also, the “3A4 IC50” value at CYP3A stood at 0.2 µM. For the same molecule, the “HLM” value in series [2] worked out at 32 µL/min/mg.
